# Measurements as given in article PMC12040169 (PLOS Biology, 2025).
# Experiment: in vitro
# Conditions: human, hela cells, % viability
row,SMILES,"viability at 28.5 h, 10 µM"
1,CC(C)(C)c1cc(CN(Cc2cc(C(C)(C)C)c(O)c(C(C)(C)C)c2)/N=C\c2ccccc2O)cc(C(C)(C)C)c1O [CBK261990],101%
2,Cc1cc(I)ccc1NC(=O)CCC(=O)N/N=C/c1ccco1 [CBK261991],99.4%
3,CC(C)(C)c1cc(CN(Cc2cc(C(C)(C)C)c(O)c(C(C)(C)C)c2)C2CCCCC2)cc(C(C)(C)C)c1O [CBK261996],106%
4,c1ccc2c(OCCOCCN3CCCCC3)cccc2c1 [CBK262000],88%
5,Oc1ccccc1/C=N/Nc1nnc(-c2ccccc2)c(-c2ccccc2)n1 [CBK262003],93%
6,CC1(C)CC(/N=C(\c2ccccc2)c2ccc(O)cc2O)CC(C)(C)N1 [CBK262004],101%
7,O=[N+]([O-])c1ccc(NCCCNS(=O)(=O)c2ccc3ccccc3c2)c(Cl)c1 [CBK262006],79.3%
8,O=C(CCC(=O)Nc1ccc(I)cc1)N/N=C/c1ccc(Br)cc1 [CBK262010],88.9%
9,C[N+](C)(C)CCC(=O)CCC(=O)O [CBK262012I],102%
10,COc1cc(/C=N/NC(=O)CNC(=O)c2ccncc2)ccc1O [CBK262013],102%
11,Cc1cc(O)n(-c2cc(-c3ccccc3)nc(-c3ccccc3)n2)n1 [CBK262014],95.5%
12,COc1cc(/C=N/CC/N=C/c2ccc(O)c(OC)c2)ccc1O [CBK262015],106%
13,NNC(=O)Nc1ccc(Cc2ccc(NC(=O)NN)cc2)cc1 [CBK262017],88.5%
14,C/C(=N\NC(=O)CNC(=O)c1ccc(Br)cc1)c1ccccc1 [CBK262020],103%
15,Cc1cccc(NC(=O)CCC(=O)N/N=C/c2cccnc2)c1 [CBK262023],103%
16,O=C(CN1C(=O)c2ccccc2C1=O)Nc1cc(C(=O)O)cc(C(=O)O)c1 [CBK262024],102%
17,C(=N\Nc1nnc(-c2ccccc2)c(-c2ccccc2)n1)/c1cccnc1 [CBK262025],91.8%
18,O=[N+]([O-])c1ccc(-c2ccc(/C=N/Nc3nnc4c(n3)[nH]c3ccccc34)o2)cc1 [CBK262029],90.4%
19,O=[N+]([O-])c1ccccc1NC1OCC(O)C(O)C1O (centres unmarked) [CBK262032],90.3%
20,O=C1Nc2ccc(S(=O)(=O)NCCCO)c3cccc1c23 [CBK262033],85.9%
21,Clc1ccc(/C=N/Nc2nnn[nH]2)c(Cl)c1 [CBK262034],98%

row,SMILES,"viability at 28.5 h, 10 µM"
1,O=C(O)CS(=O)(=O)c1ccc(Cl)cc1 [CBK262036G],114%
2,N/C(=N\OCC(=O)Nc1cccc([N+](=O)[O-])c1)c1nonc1N [CBK262044],90%
3,CN(C)CC(C)(C)CNC=C1C(=O)CC(C)(C)CC1=O [CBK262046],99.9%
4,O=C(NN=Cc1ccc(O)cc1)c1cc[n+](Cc2ccccc2)cc1 [CBK262047C],87.3%
5,Cc1nn(-c2ccccc2)c(O)c1/C=N/c1ccccc1Sc1c(C)n[nH]c1C [CBK262048],89.1%
6,O=C(OCc1ccccc1)Oc1cncc(C(=O)O)c1 [CBK262053],91.1%
7,Cc1n[nH]c(C)c1Sc1ccccc1/N=C/c1ccc(C(=O)O)cc1 [CBK262055],86.9%
8,O=C(O)CCSc1nc2ccccc2[nH]1 [CBK262056],96.2%
9,CC1(C)CC(=O)C(=CNCCC(c2ccccc2)c2ccccc2)C(=O)C1 [CBK262057],114%
10,CCSc1nc2ccccc2n1CC(=O)O [CBK262059],87.7%
11,O=C(O)CCCNC(=O)c1cncc(O)c1 [CBK262060],81.8%
12,Cc1ccc(OCC(O)CN(C)S(=O)(=O)O)c([N+](=O)[O-])c1 (centres unmarked) [CBK262062K],85.3%
13,O=C(C[n+]1cccc(C(=O)N/N=C/c2ccc(Br)cc2)c1)c1ccccc1 [CBK262063B],90.1%
14,O=C(Oc1ccc(/C=N/Nc2nc(N3CCOCC3)nc(N3CCOCC3)n2)cc1)c1ccccc1 [CBK262064],107%
15,c1ccc(C(=NCCN=C(c2ccccc2)c2ccccc2)c2ccccc2)cc1 [CBK262065],113%
16,Cc1n[nH]c(C)c1Sc1ccccc1/N=C/c1ccccc1O [CBK262068],93%
17,O=C(O)CSc1ncnc2ccccc12 [CBK262069],94.4%
18,Cc1cc(C)nc(SCc2c(C)c(C)c(CSc3nc(C)cc(C)n3)c(C)c2C)n1 [CBK262070],109%
19,CCC1CCCCN1S(=O)(=O)c1cccc2c(S(=O)(=O)N3CCCCC3CC)cccc12 (centres unmarked) [CBK262073],92.8%
20,C/C(=N/O)c1ccc(OCCCOc2ccc(/C(C)=N/O)cc2)cc1 [CBK262075],95.2%
21,O=C(NO)c1nc[nH]c1C(=O)NO [CBK262077],97.7%

row,SMILES,"viability at 28.5 h, 10 µM"
1,O=C1CC(N2CCN(C/C=C/c3ccccc3)CC2)C(=O)N1CCc1ccccc1 (centres unmarked) [CBK262082],83.6%
2,CC(NC(=O)COc1ccc(Br)cc1)C(=O)O (centres unmarked) [CBK262083],87.4%
3,Cn1ccnc1C(O)(c1ccccc1)c1nccn1C [CBK262084],97.6%
4,O=C(Nc1ccc(Cc2ccc(NC(=O)c3ccc(Br)cc3)c(O)c2)cc1O)c1ccc(Br)cc1 [CBK262086],102%
5,CCC(Oc1ccccc1)C(=O)Nc1sc2c(c1C#N)CCCC2 (centres unmarked) [CBK262091],87.5%
6,O=C(COc1ccc([N+](=O)[O-])cc1)N/N=C/c1cc(Br)cc(Br)c1O [CBK262094],98.3%
7,COc1cccc(NC(=O)C(=O)NCCCO)c1 [CBK262095],89.6%
8,COc1cccc(/C=N/NC(=O)C(=O)NCc2ccccn2)c1O [CBK262097],93.5%
9,O=C(Nc1cccnc1)c1cc(S(=O)(=O)N2CCOCC2)ccc1Cl [CBK262099],84.7%
10,O=C(NN1C(=O)c2ccccc2C1=O)c1cc(C(=O)NN2C(=O)c3ccccc3C2=O)cc(N2C(=O)c3ccccc3C2=O)c1 [CBK262100],88.2%
11,Cc1ccc(Nc2nc(N/N=C/c3cccc4ccccc34)nc(N3CCC(Cc4ccccc4)CC3)n2)cc1 [CBK262101],94.7%
12,O=C(c1ccco1)N1CCN(S(=O)(=O)c2ccc3c(c2)C(=NO)c2cc(S(=O)(=O)N4CCN(C(=O)c5ccco5)CC4)ccc2-3)CC1 [CBK262103],104%
13,CC(=O)Nc1ccc(N2C(=O)c3ccc(S(=O)(=O)c4ccc5c(c4)C(=O)N(c4ccc(NC(C)=O)cc4)C5=O)cc3C2=O)cc1 [CBK262105],77.8%
14,O=C(CCn1c2ccccc2c2ccccc21)NNC(=S)Nc1ccccc1 [CBK262106],94.6%
15,CC(=O)Nc1ccc(S(=O)(=O)N2CCCC(CO)C2)cc1 (centres unmarked) [CBK262108],98.6%
16,NS(=O)(=O)c1ccc(NC(=O)/C(=C/c2ccc(Br)cc2)NC(=O)c2ccccc2)cc1 [CBK262109],105%
17,COc1cc(/C=N/NC(=O)c2ccccn2)ccc1OC(=O)c1cccc2ccccc12 [CBK262110],94.4%
18,CCOc1ccc(/N=N\c2ccc(O)c(/C=N\Nc3ccc([N+](=O)[O-])cc3)c2)cc1 [CBK262111],97.7%
19,O=C(Oc1cccc(/C=N/NC(=O)c2ccccn2)c1)c1cccc(Br)c1 [CBK262115],90.5%

# Same assay, conditions: human, hela cells, % viability, bulk resorufin, single well
row,SMILES,"viability at 28.5 h, 10 µM"
1,Cc1ccc(C=C2C(=O)NC(=O)NC2=O)cc1[N+](=O)[O-] [CBK262102],97.9%
